Key:
osteoclast precursors = test: Murine co-culture system, osteoclast formation (osteoclast number by TRAcP staining); format: cell-based; settings: Mus musculus, after 72 hours exposure, FIG. 2, read-out: IC50 against osteoclast precursors (FIG. 2)
Procedure: The first model system, the murine co-culture system, studies the formation of osteoclasts from precursors present in the bone marrow. The number of osteoclasts and the amount of dentine resorption was measured.
Osteoclast formation and activity was studied using an adaptation (see, e.g., van't H of & Ralston, 1997) of the osteoblast-bone marrow co-culture assay originally described by Takahashi et al., 1988.
Co-Culture Methods. Co-culture (see, e.g., Van't H of et al., 1997) is a method to study the formation of osteoclasts from their precursors. In this assay, osteoblasts were obtained from the calvaria of 2-3 day old neonatal mice. […] At the end of the culture osteoclasts were identified by TRAcP staining and the resorption activity was measured in the same manner as for rabbit osteoclasts.
Osteoblast Plating. […] The cells were counted and then seeded in a 96 well plated containing dentine slices, at 8×10^3 cells per well in 100 μl medium containing 1000× dilution of stock 1,25-dihydroxyvitamin D3 (final conc. 10 nM/well) to stimulate the expression of RANKL and cultured overnight. […]
More specifically, the femurs and tibia were dissected from 2-3 adult C57/bl6 mice (3-6 months old) and the surrounding tissue was removed. […] The bone marrow cells were counted and then added to the 96 well plate containing the osteoblasts at 2×10^5 cells/well in 50 μL medium. […]

[1] = tested on: J774 macrophage cell line; test: Alamar Blue macrophage J774 viability assay; format: cell-based; settings: Mus musculus, J774, 72 h, 72 hours culture with compound, Alamar Blue, read-out: IC50 (J774)
Procedure: Initial screening of candidate compounds was performed using viability assays, on cultures of the macrophage cell line J774, which have been used before as a model system for osteoclast survival (see, e.g., Luckman et al., 1998). The assays are based on the survival of the J774 macrophage cell line; macrophages are closely related to osteoclasts, and contain similar high levels of esterase activity.
J774 cells were plated at 10^4 cells per well in 150 μL αMEM (α Modified Eagle Medium) in 96-well plates and grown overnight. The next day, compounds were added to the cultures, and culture was continued for another 72 hours. At the end of the culture period cell survival was determined using an Alamar Blue assay as previously described (see, e.g., Nociari et al., 1998).
Alamar Blue is an oxidation-reduction sensitive indicator. The dye itself is in the oxidised state, which is blue and non-fluorescent. The dye can accept electrons from reducing species, such as NADPH and FADH, to form a reduced dye species, which is red and fluorescent. Thus the transformation from oxidised form to reduced form can be measured by fluorimetric or colourimetric means. For fluorescence measurements, 530-560 nm excitation and 590 nm emission wavelengths are typically used. For colourimetric measurements, absorbance is measured at 570 nm (reduced form) and 600 nm (oxidised form) and a simple calculation performed to determine the relative quantities of the two species.
A high ratio of the reducing species, NADPH and FADH, to the corresponding oxidised species, NADP and FAD, is an indicator that cells are proliferating and viable. A low ratio indicates cells that are quiescent or non-viable.
Briefly, Alamar Blue (Biosource International) was added undiluted to the each well (1:10 v/v, 15 μL). The plate was incubated at 37° C. for 3-4 hours and the fluorescence was measured at 570 nm, with a 25 nm bandwidth. A high reading indicated cells with normal viability, and a low reading indicates cells that have been damaged and are no longer proliferating normally. The controls gave a high fluorescence reading, indicating a high number of live, healthy cells. A potent test compound gave a low fluorescence reading. The average results for each test compound (n=5) were expressed as a percent (%) of the average control value.
Addition of Compounds. All of the compounds studied were made up as 100 mM solutions in DMSO. These stock solutions were then diluted 100 or 1000× in culture medium (αMEM). From these 1 mM or 100 μM solutions, convenient quantities (3-15 μL) were added directly to the wells so as to give the desired final compound concentration.

IC50 (osteoclast precursors): 200 nM
SMILES: Cc1cc(S(=O)(=O)NCCCCO)ccc1-c1ccc(F)cc1F [ABD-295, 2′,4′-Difluoro-2-methylbiphenyl-4-sulfonic acid-(4-hydroxybutyl)-amide]
IC50 [1]: 800 ± 100 nM

Reference: patent publication US7964643B2, “Aryl alkyl sulfonamides as therapeutic agents for the treatment of bone conditions” (The University Court of the University of Aberdeen, priority 2004, dated 2011)
